# In US11059886B1, “Methods and compositions for treating inflammatory or autoimmune diseases or conditions using GRM8 activators” (Flagship Pioneering Innovations V, Inc., priority 2018, dated 2021):
# Tested on: M2-like macrophages
# Experiment: IL-8 secretion by M-CSF-differentiated human monocyte-derived M2-like macrophages (LEGENDplex bead-based immunoassay of supernatant)
# Format: cell-based
# Conditions: M2-like macrophages from human CD14+ monocytes
# Procedure: CD14+ monocytes were isolated from human PBMCs using negative magnetic bead selection (Stemcell Technologies) on day 0. Cells were cultured with M-CSF to differentiate monocytes to macrophages. On day 6, cells were treated with L-AP4 (selective group III metabotropic glutamate receptor agonist) (Sigma-Aldrich), at concentrations 1 μM and 10 μM overnight. Supernatant was collected and LEGENDplex™ bead-based immunoassays (Biolegend) were performed to detect for changes in cytokines secreted.
# Secretion of the inflammatory cytokine, IL-8, was decreased with the addition of the mGluR8 agonist in M2-like macrophages, consistent across multiple donors, as shown in Table 15 below.
compound,measurement,setting,value
NC(CCP(=O)(O)O)C(=O)O [L-AP4],Fold change of IL-8 (Normalized to M2-like Macs + LPS with no compound treatment),L-AP4 1 μM overnight,0.646 fold change
same,Fold change of IL-8 (Normalized to M2-like Macs + LPS with no compound treatment),L-AP4 10 μM overnight,0.866 fold change
